What was measured:
[1] = system: native Na+ current (Nav channels) in DRG neurons; assay: Voltage-clamp recording of native Na+ current in DRG neurons; type: cell-based; conditions: 10 μM; mouse DRG neurons
Method: (§1) To investigate the mechanism of action of WN2-R and facilitate animal model experiments, we used voltage-clamp recording to test the effects of WN2-R on the native Na^+-, K^+-, and Ca^2+-mediated currents in DRG neurons. […] Furthermore, the effects of WN2-R on membrane excitability were examined in small (<30 μm) DRG neurons from mice using current-clamp recordings.
(§2) DRG isolation and culture were performed according to our previous report. Briefly, C57BL/6 mice (weight 18 to 20 g, 6 to 8 weeks) were euthanized via cervical dislocation under anesthesia. Lumbar DRGs were isolated from the L4 to L5 segments of the lumbar spinal cord. The DRG neurons were subsequently dissociated through enzymatic digestion with collagenase (0.32 mg/ml) and trypsin (0.15 mg/ml) at 37 °C for 30 min, with intermittent shaking. After centrifugation at 800 rpm for 5 min at room temperature, the cells were seeded onto poly-L-lysine-coated coverslips and cultured in DMEM (Gibco) supplemented with 10% fetal bovine serum (Gibco). […]
(§3) For recording Nav currents of DRG neurons, the bath solution contains (in mM) 30 NaCl, 1 MgCl2, 1.8 CaCl2, 5 CsCl, 5 KCl, 25 D-glucose, 5 HEPES, 0.1 CdCl2, and TEA-Cl (pH 7.4 with NaOH), and the pipette solution contains (in mM) 135 CsCl, 10 NaCl, and 5 HEPES (pH 7.4 with CsOH). The Nav current program is recorded following the above method. […]

[2] = system: native K+ current (Kv channels) in DRG neurons; assay: Voltage-clamp recording of native K+ current in DRG neurons; type: cell-based; conditions: 10 μM; mouse DRG neurons
Method: as §1, §2, §3

[3] = system: formalin-induced acute inflammatory pain model in mice; assay: Formalin-induced inflammation pain model; type: in vivo, ICR mice; conditions: 30 min before formalin
Method: The formalin-induced acute inflammatory pain model in mice, achieved through the plantar injection of formalin aqueous solution, is another widely used model for acute inflammatory pain. This model comprises 2 stages: an initial phase ([…]) where pain is triggered by formalin's direct stimulation of nociceptive receptors on sensory neurons, followed by a second phase (15 to 40 min) characterized by persistent inflammatory pain due to tissue damage. Similarly, both i.g. and i.m. methods were used to evaluate the effect of WN2-R in this model (n = 6) (Fig. 6B and I). […] These findings were consistent across repeated experiments.
To induce the pain response, 20 μl of formalin (5%, w/v) was injected subcutaneously into the right hind paw of ICR mice (3 male and 3 female). Prior to the formalin injection, mice were preadministered with WN2-R (5 mg/kg i.g., 1 mg/kg i.m.), PF05089771 (5 mg/kg i.g., 1 mg/kg i.m.), or saline 30 min beforehand. The duration of licking/biting the injected paw was recorded every 5 min, commencing immediately after the formalin injection and continuing for 40 min. Phase I and II in this assay corresponded to the nociceptive response observed between 0 and 5 min and between 10 and 40 min, respectively.

mice = conditions: mouse, in vivo
Method: VGSC inhibitors required credible subtype selectivity to void side effects caused by binding to nontarget subtypes. At a concentration of 1 μM, the inhibitory rates of WN2-R on hNav1.2, hNav1.3, hNav1.4, hNav1.5, mNav1.6, and hNav1.8 were determined (n = 3 to 6, Fig. 7A). […] To further evaluate the drug safety profile, high-dose acute toxicity experiments were conducted. Mice were administered a high dose of 30 mg/kg WN2-R through i.p. administration. The rotarod test, forced-swim test, and open field test were used to explore the effect of high-dose WN2-R on the motor ability of mice (n = 4). The rotarod test evaluated the drug's effect on motor coordination, the forced-swim test examined its impact on the overall motor system, and the open field test assessed the drug's influence on the motor and nervous systems.

SMILES: Cc1ccc(Cn2cc([C@H](CC(=O)NCCN(C)C)c3ccc(F)cc3)c3ccccc32)cc1 [WN2-R]
- Effect on native Na+ current [1]: completely inhibited
- Effect on native K+ current [2]: almost no effect
- Licking time in phase I vs saline ([3]; i.g., 5 mg/kg): significantly reduced licking time
- Licking time in phase II vs saline ([3]; i.g., 5 mg/kg): failed to significantly reduce licking time
- Licking time in phase I vs saline ([3]; i.m., 1 mg/kg): significantly reduced licking time
- Licking time in phase II vs saline ([3]; i.m., 1 mg/kg): significantly reduced licking time
- Survival after high dose (mice): survived normally

Source: article PMC11775380, “Discovery of Novel Nav1.7-Selective Inhibitors with the 1H-Indole-3-Propionamide Scaffold for Effective Pain Relief” (Research, 2025)
